Reference: ChEMBL document CHEMBL5375947, “Discovery of Efficient Hypoxia-Targeted NO Donor Compounds to Alleviate Hypoxia Cardiac Disease” (J Med Chem, 2023)
Activity calls are given as the source filed them. The calls are words filed in the database; no cut-off is given here.

How the values were obtained:
H9c2 [1] = assay: Recovery of myocardial cell viability in rat H9c2 cells assessed as increase in ATP level at 10 micromol/L measured per mg of protein under hypoxia condition by fluorescence based assay; format: functional; conditions: dose 10 µmol/L
H9c2 [2] = assay: Induction of NO release in rat H9c2 cells at 10 uM under normoxia condition by griess reagent based assay; format: functional
Mus musculus [3] = assay: Vasodilation activity against hypoxia-induced myocardial injury C57 mouse model assessed as vascular obstruction areas at 12 mg/kg, ip administered twice a day for 3 days; format: functional, organism-based; conditions: time 3.0 day
H9c2 [4] = assay: Induction of NO release in rat H9c2 cells at 10 uM under hypoxia condition by griess reagent based assay; format: functional
H9c2 [5] = assay: Induction of NO release in rat H9c2 cells at 10 uM measured at 30 mins under hypoxia condition by griess reagent based assay; format: functional; conditions: 0.5 h
H9c2 [6] = assay: Cytotoxicity against rat H9c2 cells assessed as reduction in cell viability at 0.01 to 10 uM under normoxia condition by CCK-8 assay; format: toxicity, cell-based; conditions: h9c2, 10 µM, dose 0.01-10 µM
Mus musculus [7] = assay: Protection against hypoxia-induced myocardial injury C57 mouse model assessed as cellular arrangement disorder at 12 mg/kg, ip administered twice a day for 2 days by H and E staining based analysis; format: functional, organism-based; conditions: time 2.0 day
[8] = Toxicity in C57 mouse assessed as ratio of heart weight to body weight at 4 mg/kg IG administered twice a day for 3 days; format: organism-based; conditions: in vivo, po, 72 h, time 3 day
Mus musculus [9] = assay: Induction of NO release in C57 mouse at 4 mg/kg, ip administered twice a day for 3 days; format: functional; conditions: time 3 day
H9c2 [10] = assay: Induction of NO release in rat H9c2 cells at 10 uM measured upto 12 hrs under hypoxia condition by griess reagent based assay; format: functional, cell-based
[11] = Toxicity in C57 mouse assessed as reduction in heart weight at 12 mg/kg, ip administered twice a day for 3 days (reference value: 0.56g); format: organism-based; conditions: in vivo, 72 h, time 3 day
H9c2 [12] = assay: Recovery of myocardial cell viability in rat H9c2 cells at 0.01 to 10 uM under hypoxia condition by CCK-8 assay; format: functional, cell-based; conditions: dose 0.01-10 µM
H9c2 [13] = assay: Anti-apoptotic activity in rat H9c2 cells assessed as late apoptotic cells by measuring red fluorescence intensity by annexin V-FITC/PI staining based confocal microscopic analysis; format: functional, cell-based
H9c2 [14] = assay: Induction of NO release in rat H9c2 cells under hypoxia condition by griess reagent based assay; format: functional, cell-based; conditions: dose <= 15.0 µM
[15] = Toxicity in C57 mouse assessed as increase in body weight at 4 mg/kg, ip administered twice a day for 3 days; format: organism-based; conditions: in vivo, 72 h, time 3 day
[16] = Toxicity in C57 mouse assessed as ratio of heart weight to body weight at 4 to 12 mg/kg IG administered twice a day for 3 days; format: organism-based; conditions: in vivo, po, 72 h, dose 4-12 mg/kg, time 3 day
Mus musculus [17] = assay: Protection against hypoxia-induced myocardial injury ip dosed C57 mouse model assessed as cellular arrangement disorder at high dose administered twice a day for 2 days by H and E staining based analysis; format: functional, organism-based; conditions: time 2.0 day
H9c2 [18] = assay: Upregulation of TSC2-p expression in rat H9c2 cells at 5 to 10 uM by Western blot analysis; format: functional, cell-based; conditions: dose 5-10 µM
Mus musculus [19] = assay: Vasodilation activity against hypoxia-induced myocardial injury ip dosed C57 mouse model assessed as vascular obstruction areas low dose administered twice a day for 3 days; format: functional, organism-based; conditions: time 3.0 day
H9c2 [20] = assay: Induction of NO release in rat H9c2 cells at 5 to 10 uM under hypoxia condition by griess reagent based assay; format: functional, cell-based; conditions: dose 5-10 µM
Mus musculus [21] = assay: Protection against hypoxia-induced myocardial injury IG dosed C57 mouse model assessed as collagen fiber proliferation at low dose administered twice a day for 3 days by masson staining based analysis; format: functional, organism-based; conditions: time 3.0 day
Mus musculus [22] = assay: Protection against hypoxia-induced myocardial injury ip dosed C57 mouse model assessed as cellular arrangement disorder at low dose administered twice a day for 2 days by H and E staining based analysis; format: functional, organism-based; conditions: time 2.0 day
H9c2 [23] = assay: Induction of NO release in rat H9c2 cells at 10 uM measured at 4 hrs under hypoxia condition by griess reagent based assay; format: functional, cell-based
H9c2 [24] = assay: Downregulation of ACE expression in rat H9c2 cells at 5 to 10 uM by Western blot analysis; format: functional, cell-based; conditions: dose 5-10 µM
Mus musculus [25] = assay: Protection against hypoxia-induced myocardial injury ip dosed C57 mouse model assessed as downregulation of mTORC1 expression in heart at low dose administered twice a day for 3 days by immunohistochemistry analysis; format: functional, organism-based; conditions: time 3.0 day
H9c2 [26] = assay: Effect on ACE expression in rat H9c2 cells at 1 uM by Western blot analysis; format: functional, cell-based
Mus musculus [27] = assay: Protection against hypoxia-induced myocardial injury C57 mouse model assessed as downregulation of ACE expression in heart at 12 mg/kg, IG administered twice a day for 3 days by immunohistochemistry analysis; format: functional, organism-based; conditions: time 3.0 day
Mus musculus [28] = assay: Induction of NO release in C57 mouse at 4 to 12 mg/kg, ip administered twice a day for 3 days; format: functional, organism-based; conditions: dose 4-12 mg/kg, time 3.0 day
[29] = Toxicity in C57 mouse assessed as increase in body weight at 4 to 12 mg/kg IG administered twice a day for 3 days; format: organism-based; conditions: in vivo, po, 72 h, dose 4-12 mg/kg, time 3 day
Mus musculus [30] = assay: Vasodilation activity against hypoxia-induced myocardial injury ip dosed C57 mouse model assessed as vascular obstruction areas high dose administered twice a day for 3 days; format: functional, organism-based; conditions: time 3.0 day
H9c2 [31] = assay: Induction of NO release in rat H9c2 cells at 10 uM measured at 4 hrs under normoxia condition by griess reagent based assay; format: functional
[32] = Toxicity in C57 mouse assessed as reduction in heart weight at low dose administered twice a day for 3 days (reference value: 0.56g); conditions: in vivo, 72 h, time 3 day
Mus musculus [33] = assay: Protection against hypoxia-induced myocardial injury ip dosed C57 mouse model assessed as downregulation of ACE expression in heart at high dose administered twice a day for 3 days by immunohistochemistry analysis; format: functional, organism-based; conditions: time 3.0 day
[34] = Toxicity in C57 mouse assessed as increase in cardiac swelling at 12 mg/kg, ip administered twice a day for 3 days; format: organism-based; conditions: in vivo, 72 h, time 3 day
H9c2 [35] = assay: Effect on TSC2-p expression in rat H9c2 cells by Western blot analysis; format: functional, cell-based; conditions: dose 0.01-1 µM
Mus musculus [36] = assay: Protection against hypoxia-induced myocardial injury C57 mouse model assessed as reduction in collagen fiber proliferation at 12 mg/kg, IG administered twice a day for 3 days by masson staining based analysis; format: functional, organism-based; conditions: time 3.0 day
Mus musculus [37] = assay: Protection against hypoxia-induced myocardial injury ip dosed C57 mouse model assessed as collagen fiber proliferation at low dose administered twice a day for 3 days by masson staining based analysis; format: functional, organism-based; conditions: time 3.0 day
Mus musculus [38] = assay: Protection against hypoxia-induced myocardial injury ip dosed C57 mouse model assessed as downregulation of mTORC1 expression in heart at high dose administered twice a day for 3 days by immunohistochemistry analysis; format: functional, organism-based; conditions: time 3.0 day
H9c2 [39] = assay: Induction of NO release in rat H9c2 cells at 5 to 15 uM under hypoxia condition by griess reagent based assay; format: functional, cell-based; conditions: dose 5-15 µM
Mus musculus [40] = assay: Protection against hypoxia-induced myocardial injury ip dosed C57 mouse model assessed as downregulation of ACE expression in heart at low dose administered twice a day for 3 days by immunohistochemistry analysis; format: functional, organism-based; conditions: time 3.0 day
H9c2 [41] = assay: Effect on TSP1 expression in rat H9c2 cells at 10 uM by Western blot analysis; format: functional, cell-based
[42] = Toxicity in C57 mouse assessed as reduction in heart weight at high dose administered twice a day for 3 days (reference value: 0.56g); conditions: in vivo, 72 h, time 3 day
H9c2 [43] = assay: Induction of NO release in rat H9c2 cells at 10 uM under hypoxia condition by DAF-FM fluorescence probe based spectroscopic assay; format: functional, cell-based
H9c2 [44] = assay: Downregulation of mTORC1 expression in rat H9c2 cells at 5 uM by Western blot analysis; format: functional, cell-based
H9c2 [45] = assay: Recovery of myocardial cell viability in rat H9c2 cells at 0.01 to 1 uM under hypoxia condition by CCK-8 assay; format: functional, cell-based; conditions: dose 0.01-1 µM
[46] = Toxicity in C57 mouse assessed as increase in cardiac swelling at 4 mg/kg, ip administered twice a day for 3 days; format: organism-based; conditions: in vivo, 72 h, time 3 day
[47] = Stability of compound in PBS at pH 7.4 by HPLC analysis; format: physicochemical; conditions: buffer
H9c2 [48] = assay: Downregulation of mTORC1 expression in rat H9c2 cells at 5 to 10 uM by Western blot analysis; format: functional, cell-based; conditions: dose 5-10 µM
H9c2 [49] = assay: Recovery of myocardial cell viability in rat H9c2 cells under hypoxia condition by CCK-8 assay; format: functional, cell-based; conditions: dose 10.0 µM
H9c2 [50] = assay: Downregulation of ACE expression in rat H9c2 cells at 5 uM by Western blot analysis; format: functional, cell-based

O=[N+]([O-])O[C@H]1CO[C@H]2[C@@H]1OC[C@H]2O[N+](=O)[O-] [ISOSORBIDE DINITRATE]
Activity (H9c2 [1]): 28.7 nmol
Activity (H9c2 [2]): 36.89%
Activity (Mus musculus [3]): inactive
Activity (H9c2 [4]): 27.41%
Activity (H9c2 [5]): ~30%
Activity (H9c2 [6]): Non-Toxic
Activity (Mus musculus [7]): Active
Ratio [8]: 0.59
Activity (Mus musculus [9]): 54%
Activity (H9c2 [10]): Active
Activity [11]: 0.51 g
Activity (H9c2 [12]): Active
Activity (H9c2 [13]): Active
Activity (H9c2 [14]): Dose-Dependent Effect
Activity [15]: Non-Toxic

CN(N=O)c1ccc(OC(=O)OCc2ccc(Br)cc2[N+](=O)[O-])cc1
Activity (H9c2 [2]): <2%

Cc1cc([N+](=O)[O-])ccc1COC(=O)Oc1ccc(N(C)N=O)cc1
Ratio [16]: 0.56
Activity (Mus musculus [17]): Active
Activity (H9c2 [18]): Active
Activity (Mus musculus [19]): Active
Activity (H9c2 [1]): 44 nmol
Activity (H9c2 [2]): <2%
Activity (H9c2 [20]): Active
Activity (H9c2 [4]): 43.21%
Activity (Mus musculus [21]): Active
Activity (Mus musculus [22]): Active
Activity (H9c2 [23]): Active
Activity (H9c2 [24]): Active
Activity (Mus musculus [25]): Active
Activity (H9c2 [26]): Active
Activity (Mus musculus [27]): Active
Activity (Mus musculus [28]): Active
Activity [29]: Non-Toxic
Activity (Mus musculus [30]): Active
Activity (H9c2 [31]): 0%
Activity (H9c2 [5]): 28%
Activity (H9c2 [6]): Non-Toxic
Activity [32]: 0.52 g
Activity (Mus musculus [33]): Active
Activity [34]: Toxic
Activity (H9c2 [35]): Dose-Dependent Effect
Activity (H9c2 [10]): Active
Activity (Mus musculus [36]): Active
Activity (Mus musculus [37]): Active
Activity (Mus musculus [38]): Active
Activity (H9c2 [39]): Active
Activity (Mus musculus [40]): Active
Activity (H9c2 [12]): Active
Activity (H9c2 [13]): Active
Activity (H9c2 [41]): Active
Activity [42]: 0.48 g
Activity (H9c2 [43]): Active
Activity [15]: Non-Toxic

Cc1ccc(COC(=O)Oc2ccc(N(C)N=O)cc2)c([N+](=O)[O-])c1
Activity (H9c2 [2]): <2%

Cc1ccc([N+](=O)[O-])c(COC(=O)Oc2ccc(N(C)N=O)cc2)c1
Activity (H9c2 [2]): <2%

CN(N=O)c1ccc(OC(=O)OCc2ccc([N+](=O)[O-])cc2)cc1
Activity (H9c2 [18]): Active
Activity (Mus musculus [19]): Active
Activity (H9c2 [1]): 37.5 nmol
Activity (H9c2 [2]): <2%
Activity (H9c2 [20]): Active
Activity (H9c2 [4]): 24.38%
Activity (Mus musculus [22]): Active
Activity (H9c2 [44]): inactive
Activity (H9c2 [24]): Active
Activity (H9c2 [45]): Active
Activity (Mus musculus [28]): Active
Activity [46]: Non-Toxic
Activity (Mus musculus [30]): Active
Stability [47]: 0.41%
Activity (H9c2 [48]): Active
Activity (H9c2 [6]): Non-Toxic
Activity [32]: 0.57 g
Activity [34]: Toxic
Activity (Mus musculus [37]): inactive
Activity (H9c2 [49]): Dose-Dependent Effect
Activity (H9c2 [12]): Active
Activity (H9c2 [13]): Active
Activity [42]: 0.48 g
Activity (H9c2 [50]): inactive
Activity (H9c2 [43]): Active
Activity [15]: Non-Toxic

CN(N=O)c1ccc(OC(=O)OCc2cc(Cl)ccc2[N+](=O)[O-])cc1
Activity (H9c2 [2]): <2%

CN(N=O)c1ccc(OC(=O)OCc2ccc(Cl)cc2[N+](=O)[O-])cc1
Activity (H9c2 [2]): <2%

CN(N=O)c1ccc(OC(=O)OCc2ccccc2[N+](=O)[O-])cc1
Activity (H9c2 [2]): <2%
Activity (H9c2 [4]): >20%

CN(N=O)c1ccc(OC(=O)OCc2ccc([N+](=O)[O-])cc2Cl)cc1
Activity (H9c2 [2]): <2%
Activity (H9c2 [4]): >20%
